“Also recorded” adds a separate entry of the source. Like-named read-outs stand apart in the source and are kept apart here. Values belong to the compound of their own block, whether it stands above or below them.
How the values were obtained:
MT-2 cells = assay: Analysis of intracellular nucleotides formed in MT-2 cells; type: in vitro ADME
[1] = system: human peripheral blood mononuclear (PBM) cells; assay: LC/MS analysis of nucleotides formed after incubation in PBM cells; type: in vitro ADME; settings: for nucleosides/nucleotides detected by LC/MS / species not detected by LC/MS: 50 μM
adenosine deaminase = assay: Adenosine deaminase assay (deamination of nucleosides); type: in vitro ADME
Procedure: To determine the propensity for deamination of the 6-substituted-2-amino purine nucleoside monophosphate prodrugs by adenosine deaminase, nucleoside compounds were incubated with the commercially available purified enzyme, and the reaction was followed spectrophotometrically. Reaction conditions were 50 mM potassium phosphate, pH 7.4, with 50 μM nucleoside analog in 0.5 mL at 25° C. Reaction time was 7 minutes with 0.002 units of enzyme and 120 minutes with 0.2 units of enzyme. (The unit definition of adenosine deaminase is one unit will deaminate 1.0 μmol of adenosine to inosine per minute at pH 7.5 at 25° C.) Deoxyadenosine was the positive control which was 59% deaminated under the given conditions in 7 minutes with 0.002 units of enzyme. Deoxyguanosine was the negative control. Optical density was measured at 265 nm or 285 nm. The difference in optical density between the beginning and the end of the experiment was divided by the extinction coefficient then multiplied by the volume of the reaction to determine the number of mols of substrate transformed into product. Mols of product were divided by mols of substrate equivalent to a 100% complete reaction then multiplied by 100 to obtain percent deamination. The limit of detection was 0.001 optical density units.

HIV-1LAI = assay: Anti-HIV (in PBM cells) assay; type: cell-based; settings: Human immunodeficiency virus 1, PBMC; for EC50: read-out: HIV EC50; for EC90: read-out: HIV EC90
Procedure: Stock solutions (20-40 mM) of the compounds were prepared in sterile DMSO and then diluted to the desired concentration in growth medium. Cells were infected with the prototype HIV-1LAI at a multiplicity of infection of 0.01. Virus obtained from the cell supernatant was quantified on day 6 after infection by a reverse transcriptase assay using (rA)n·(dT)12-18 as template-primer. The DMSO present in the diluted solution (<0.1%) had no effect on the virus yield. AZT was included as positive control.

[2] = system: PHA-stimulated human PBMCs; settings: cited from earlier work
CEM cells = settings: previous study; cited from earlier work
human PBM cells = assay: Cytotoxicity assay in PBM cells
[3] = system: CEM (human lymphoblastoid) cells; assay: Cytotoxicity assay in CEM cells; settings: Lymphoblastoid cell, read-out: CEM IC50
Vero cells = assay: Cytotoxicity assay in Vero cells; settings: Chlorocebus sabaeus, read-out: Vero IC50
HepG2 cells = HepG2 cells incubated with 10 μM; cited from earlier work
[4] = 50 μM nucleoside analog, 50 mM potassium phosphate pH 7.4, 25° C.
[5] = human PBM cells, RS-788 n = 3, RS-864 n = 2

SMILES: [N-]=[N+]=N[C@H]1C[C@H](n2cnc3c(=O)[nH]c(N)nc32)O[C@@H]1CO [AZG]
concentration at which phosphorylation reaches steady state (MT-2 cells; MT-2, four different concentrations): 30 µM

SMILES: Nc1nc(N)c2ncn([C@H]3CO[C@@H](CO)O3)c2n1 [DAPD, (−)-β-D-2,6-diaminopurine dioxolane, reference compound]
EC50 (HIV-1LAI; [5]): 1 µM | EC90 (HIV-1LAI; [5]): 6.5 µM | DAPD levels in PBMCs relative to CEM cells ([2]; Antimicrob. Agents Chemother. 2001, 45, 158-165): 27 fold | intracellular metabolism ([2]; PHA-stimulated human PBMCs, previous study): readily deaminate to (−)-D-dioxolane guanine (DXG); also recorded: No phosphorylation of DAPD to the corresponding mono-, di-, or triphosphate forms was detected | intracellular metabolism (CEM cells): readily deaminate to (−)-D-dioxolane guanine (DXG); also recorded: No phosphorylation of DAPD to the corresponding mono-, di-, or triphosphate forms was detected | IC50 (human PBM cells; Homo sapiens, PBMC, read-out: PBM IC50): > 100 µM | IC50 [3]: > 100 µM | IC50 (Vero cells): > 100 µM

SMILES: CCOC(=O)[C@H](C)NP(=O)(OC[C@@H]1OC[C@H](n2cnc3c(N)nc(N)nc32)O1)Oc1ccccc1 (stereo partly shown) [RS-864]
EC50 (HIV-1LAI): 0.24 µM | EC90 (HIV-1LAI): 1.3 µM | nucleosides/nucleotides detected by LC/MS ([1]; PBM cells, 4 hr incubation): low levels of DXG, DXG-MP, and DXG-TP; also recorded: very high levels of DAPD-TP; also recorded: low levels of DAPD, DAPD-MP, DAPD-DP | PBM IC50 printed as percent at a single concentration (human PBM cells; @ 100 μM): 66.5% @ 100 μM | IC50 [3]: > 100 µM | IC50 (Vero cells): > 100 µM

SMILES: O=c1[nH]c(=O)n([C@@H]2O[C@H](CO)[C@@H](O)[C@@H]2F)cc1I [fialuridine, 1,2′-deoxy-2′-fluoro-1-D-arabinofuranosly-5-iodo-uracil]
mitochondrial morphology in electron micrographs (HepG2 cells): enlarged mitochondria with morphological changes consistent with mitochondrial dysfunction

Further lines, with some results ahead:

nucleosides/nucleotides detected by LC/MS ([1]; human, 4 h): RFS-457-DP and RFS-457-TP
SMILES: C=CCNc1nc(N)nc2c1ncn2[C@H]1CC(N=[N+]=[N-])[C@@H](CO)O1 (stereo partly shown) [Compound 62]
species not detected by LC/MS ([1]; human, 4 h): No RFS-427, RFS-427-MP, RFS-427-DP, or RFS-427-TP were detected

Conversion to the G analog by / stability to adenosine deaminase (adenosine deaminase; under the conditions tested): stable to adenosine deaminase
SMILES: CN(C)c1nc(N)nc2c1ncn2[C@H]1CC(N=[N+]=[N-])[C@@H](CO)O1 (stereo partly shown) [Compound 69]

nucleosides/nucleotides detected by LC/MS ([1]; human, 4 h): RFS-506-DP, RFS-457-DP, and RFS-457-TP
SMILES: COc1nc(N)nc2c1ncn2[C@H]1CC(N=[N+]=[N-])[C@@H](CO)O1 (stereo partly shown) [Compound 70]
species not detected by LC/MS ([1]; human, 4 h): No RFS-506, RFS-506-MP, or RFS-506-TP were detected

nucleosides/nucleotides detected by LC/MS ([1]; human, 4 h): RFS-457-DP and RFS-457-TP
SMILES: [N-]=[N+]=NC1C[C@H](n2cnc3c(NC4CC4)nc(N)nc32)O[C@@H]1CO (stereo partly shown) [Compound 72]
species not detected by LC/MS ([1]; human, 4 h): No RFS-512, RFS-512-MP, RFS-512-DP, or RFS-512-TP were detected

Deamination in 7 min (0.002 units Adenosine Deaminase) (adenosine deaminase; [4]): 12.81 ± 1.57% | Deamination in 120 min (0.2 units Adenosine Deaminase) (adenosine deaminase; [4]): 240.53 ± 5.86% | AZG-TP levels compared with AZG treatment ([1]; PBM cells, 4 hr at 50 μM): higher | nucleosides/nucleotides detected by LC/MS ([1]; human, 4 h): RFS-457-TP | level of unchanged drug detected (MT-2 cells; MT-2 cells treated with drug for 30 min): Negligible levels of 6415 | nucleosides/nucleotides detected (MT-2 cells; MT-2 cells, 50 μM, 4 hr): converted to AZG and AZG-TP | AZG-TP levels compared with AZG treatment (MT-2 cells; MT-2 cells, 4 hr at 50 μM): higher
SMILES: [N-]=[N+]=NC1C[C@H](n2cnc3c(Cl)nc(N)nc32)O[C@@H]1CO (stereo partly shown) [Compound 6415]
species not detected by LC/MS ([1]; human, 4 h): Neither Compound 6415 nor its phosphates were detected
